Assay results reported in patent US6288110A, “Pharmaceutical compositions comprising disulfiram” (Yeda Research and Development Co Ltd., priority 1998, dated 2001).
Where two headings read alike, the source gives them in different places.

Columns and labels:
[1] = tested on: bovine capillary endothelial cells (BCE); assay: DNA synthesis (3H-thymidine incorporation) in BCE cells; format: cell-based
Procedure: Brain bovine capillary endothelial cells (BCE) and bovine vascular smooth muscle cells (BSMC), kindly provided by Prof. Israel Vlodavsky (Hadassah Medical School, Jerusalem, Israel), were cultured at 37° C. in low glucose DMEM (1 g/liter) supplemented with 10% calf serum (HyClone, Logan, Utah, U.S.A.), a serum-free supplement: biogro-1 (Beth Haemek, Israel) and GPS.
(§1) Bovine capillary endothelial cells (BCE) and bovine aortic BSMC were plated in 24-well plates (6000 cells per well) in 500 μl DMEM medium supplemented with 10% Colorado calf serum (CCS) (GIBCO, USA) and GPS. After 24 hours, medium was changed to starvation medium (2% CCS, 0.5% BSA, GPS) for 24 hours. ^3 H-methyl-thymidine (5 μCi/ml) was added for the last 6 hours. DNA synthesis assays were performed as described above, in triplicates. DNA synthesis assays in BALB/MK keratinocytes were performed as previously described (Marikovsky, 1995).-DNA synthesis assays were performed in triplicates.
Disulfiram was prepared in 0.1 mM stock solutions in DMSO. Control samples were incubated with the appropriate concentration of DMSO. Inhibition was calculated as percentage of DNA synthesis of control.
To determine whether disulfiram acts directly on endothelial cells rather than on accessory cells such as macrophages and mast cells that can be responsible for the development of an angiogenic response in vivo, the effect of the drug on the growth of BCE cells was examined in vitro as described in section (c) of "Materials and Methods" above. DNA synthesis in BCE cells was measured in presence of increasing concentrations of disulfiram incubated for 24 hours with the cells. […] Maximal inhibitory activity (80%) for BSMC was at 0.5-1 μM disulfiram, while maximal inhibitory activity for C6 glioma cells or BALB/MK keratinocytes was at concentrations 10 fold higher (2-3 μM) than those for endothelial cells (0.2-0.5 μM).
To examine the time course of the effect of disulfiram and whether the effect was reversible, cells were incubated with disulfiram for various periods of time (1, 2, 4 and 24 hours), then washed away and DNA synthesis was determined. One to 4 hours of exposure to disulfiram were enough to induce maximal inhibitory effect at concentrations ranging from 0.5 μM for BCE cells (FIG. 3A) to 5 μM for BALB/MK keratinocytes (FIG. 3C) and C6 glioma cells (FIG. 3D). […] BSMC were less sensitive as far as time course is concerned when incubated with 1 μM disulfiram. Following 4 hours of incubation with 1 μM disulfiram, DNA synthesis inhibition in BSMC reached only 50% (FIG. 3B). The data shown here indicate that the damage for capillary endothelial cells, following a short incubation of 1 to 2 hours, was maximal and that, at least in a time scale of 24 hours, this damage was non-reversible.

[2] = tested on: all cell types examined; assay: DNA synthesis, all cell types examined, higher concentrations; format: cell-based; settings: >10 μM, all cell types examined (not shown)
Procedure: C6 rat glioma cells were plated in 96-well plates (Nunc, Denmark) (5000 cells per well) in DMEM with 5% FCS. After 6 hours the cells were rinsed and incubated for 48 hours in serum free medium. 5% FCS or growth factors were then added to the cells for 24 hours (triplicates). ^3 H-methyl-thymidine (5μCi/ml) (Rotem Ind. Ltd., Israel) was added to the cells for the last 14 hours. The cells were rinsed with 100 μl methanol for 10 minutes, followed by 200 μl 5% trichloroacetic acid, and then rinsed and lysed with 150 μl 0.3M NaOH. Radioactive thymidine incorporated into the DNA was determined for 1 min with 3 ml scintillation liquid (ULTIMA GOLD Packard) in a β-counter. DNA synthesis assays were performed in triplicates.
as §1, with “DNA synthesis assays in BALB/MK keratinocytes were performed as previously described (Marikovsky, 1995).-DNA synthesis assays were performed in triplicates.” left out
Disulfiram was prepared in 0.1 mM stock solutions in DMSO. […] Inhibition was calculated as percentage of DNA synthesis of control.

[3] = tested on: BALB/MK keratinocytes; assay: Apoptosis by FACS in BALB/MK keratinocytes; format: cell-based, murine; settings: 4 μM (not shown)
Procedure: Cells were cultured in plastic tissue culture dishes for 48 hours in presence of growth media as described above, until reaching 40-50% confluency. Disulfiram was then added to the cells for 20 hours. The cells were removed from the plates by EDTA-trypsin and fixed in ice-cold 70% ethanol (BioLab, Israel) in -20° C. for 2 hr to overnight. The fixed cells (2-5×10^6) were washed once with HEPES-buffered saline (HBSS) and incubated with 0.5 mg/ml RNAseH (Boehringer Mannheim). Afterwards the cells were resuspended in HBSS containing 50 μg/ml propidium iodide (Sigma) and subsequently analyzed on a FACSort flow cytometer (Beckton Dickinson Inc.) using Lysis II software. For the analysis, 10,000 cells were examined from each sample. The percentage of the hypodiploid cells was measured (Darzynkiewicz, 1992; Afanasyev, 1993). The cell cycle histogram was divided into four regions according to the cell cycle phases: Ap, apoptotic cells; G1, diploid cells; S, intermediate cells; and G2 /M, tetraploid cells.

[4] = cited from earlier work
[5] = tested on: aldehyde dehydrogenases; settings: cited from earlier work
[6] = tested on: oxidases; settings: cited from earlier work
[7] = tested on: superoxide dismutase; settings: in vivo; cited from earlier work
[8] = tested on: interleukin-1; settings: U.S. Pat. No. 4,870,101; cited from earlier work
[9] = tested on: bladder cancer; settings: N-butyl-N-(4-hydroxybutyl)nitrosamine or N-butyl-N-(3-carboxypropyl)nitrosamine, rats; cited from earlier work
[10] = tested on: liver tumors; settings: dimethyl- or diethylnitrosamine, rats; cited from earlier work
[11] = tested on: intestinal cancer; settings: azoxymethane, rats; cited from earlier work
[12] = tested on: neoplasia of the forestomach; settings: benzo(a)pyrene, mice; cited from earlier work
[13] = tested on: tumor progression from papilloma to squamous cell carcinoma; settings: murine skin multistage carcinogenesis model; cited from earlier work
[14] = tested on: Sarcoma 180, EL-4 leukemia or L1210 murine leukemia; settings: cited from earlier work
[15] = tested on: toxic side effects of HECNU; settings: rats; cited from earlier work
[16] = tested on: rats; settings: 0.05% in diet for 2 years; cited from earlier work
[17] = tested on: other tissues; assay: Tissue damage on systemic administration; settings: 25-60 μg/mouse systemically

Compound: CCN(CC)C(=S)SSC(=S)N(CC)CC [disulfiram, Bis(diethylthiocarbamoyl) disulfide]
- inhibition of DNA synthesis in BCE cells (in words) ([1]; 0.1-0.5 μM, 24 hours): inhibit DNA synthesis in BCE cells in a dose dependent manner
- reversibility of damage for capillary endothelial cells ([1]; 1 to 2 hours incubation, time scale of 24 hours): non-reversible
- concentration used in vitro for endothelial cells (inhibition of growth) ([1]; BCE): 0.1 to 0.2 µM
- inhibition of DNA synthesis, short incubation (in words) ([1]; BCE, 0.5 μM, 1-2 hours of incubation): near maximal inhibition of DNA synthesis
- persistence of inhibitory effect after short exposure ([1]; BCE, 24 hours following short exposure): inhibitory effect seemed to be maintained
- IC (maximal) ([1]; Bos taurus, Endothelial cell, BCE (endothelial cells), 24 hours, read-out: concentration of maximal inhibitory activity (DNA synthesis)): 0.2 to 0.5 µM
- IC (maximal) ([1]; Bos taurus, Endothelial cell, BCE, 1 to 4 hours of exposure, washed, read-out: concentration inducing maximal inhibitory effect on DNA synthesis, short exposure): 0.5 µM
- IC100 ([1]; Bos taurus, Endothelial cell, BCE, 24 hours, read-out: concentration of complete inhibition of DNA synthesis): 0.5 µM
- inhibition at higher concentrations [2]: became less inhibitory
- apoptosis by FACS [3]: did not exhibit induction of apoptosis
- solubility in water [4]: soluble in water
- solubility in methanol, acetone or chloroform ([4]; hydrophobic solutions): solubilizes better
- inhibition of aldehyde dehydrogenases [5]: inhibit
- inhibition of oxidases [6]: inhibit
- inhibition of superoxide dismutase [7]: inhibited superoxide dismutase
- inhibition of interleukin-1 release [8]: effective to inhibit the release of interleukin-1
- interference with induction of bladder cancer [9]: interfere with induction of cancer
- interference with induction of liver tumors [10]: interfere with induction of cancer
- interference with induction of intestinal cancer [11]: interfere with induction of cancer
- interference with neoplasia of the forestomach [12]: interfere with induction of cancer
- inhibition of tumor progression [13]: inhibit tumor progression
- effect on anti-tumor activity of ifosfamide and cyclophosphamide [14]: without compromising their anti-tumor activity
- effect on anti-tumor potency of HECNU [15]: without inhibiting its anti-tumor potency
- protection against toxic side effects of HECNU [15]: protected rats
- increase of any tumor type [16]: did not increase any tumor type
- damage in other tissues [17]: no evidence for damage in other tissues
